Our source for the GI50 and TGI values is PubChem BioAssay (NCI).

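Cells were grown in 96-well plates and exposed to each compound for 48 hours at five concentrations; endpoints were interpolated linearly between bracketing concentrations, or set to the highest concentration if not reached. The concentration for 50% growth inhibition is given as GI50. TGI: concentration producing complete growth inhibition.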

Test systems include A549 NSCLC; BT-549 breast; COLO 205 colon; MDA-MB-231 breast; MDA-MB-435; NCI-H226 lung; NCI-H460 lung; OVCAR-5 ovarian; SF-268 CNS; SNB-19 CNS.
What all share (test): NCI anticancer screen, dose series, 48 h

For `CN1CCN(Cc2ccc(NC(=O)c3cncc(C#Cc4cnc(N)c5ccccc45)c3)cc2C(F)(F)F)CC1`, the GI50 with A549 NSCLC is 0.342 µM; with BT-549 breast, 1.57 µM; in the test on COLO 205 colon it was 0.405 µM; with MDA-MB-231 breast, 0.369 µM; in the test with MDA-MB-435, 0.348 µM; with NCI-H226 lung, 0.393 µM. Also, the GI50 is 0.158 µM in the test with NCI-H460 lung, 0.457 µM in the test with OVCAR-5 ovarian, 0.321 µM in the test with SF-268 CNS and 0.563 µM in the test on SNB-19 CNS. Also, the TGI with A549 NSCLC turned out to be 0.93 µM; in the test with BT-549 breast it was 5.8 µM; in the test with COLO 205 colon, 0.948 µM; with MDA-MB-231 breast, 0.82 µM; with MDA-MB-435, 0.783 µM; with NCI-H226 lung it was 1.13 µM. Also, the TGI with NCI-H460 lung is 0.581 µM; with OVCAR-5 ovarian, 1.11 µM; with SF-268 CNS, 0.832 µM; in the test with SNB-19 CNS it was 1.22 µM.

For `CN=C1NC(=O)/C(=C/c2ccc3ncccc3c2)S1`, the GI50 with A549 NSCLC is 5.13 µM; with BT-549 breast, 6.12 µM; in the test on COLO 205 colon, 7.45 µM; in the test with MDA-MB-231 breast it was 18.5 µM; in the test on MDA-MB-435, 4.06 µM; in the test on NCI-H226 lung, 8.16 µM. The GI50 was 7.79 µM in the test on NCI-H460 lung, 9.52 µM in the test on OVCAR-5 ovarian, 10.7 µM with SF-268 CNS and 9.5 µM with SNB-19 CNS. Further, the TGI was greater than 25 µM with A549 NSCLC; greater than 23 µM in the test with BT-549 breast; greater than 25 µM in the test with COLO 205 colon; greater than 25 µM with MDA-MB-231 breast; greater than 25 µM with MDA-MB-435; greater than 25 µM in the test on NCI-H226 lung. Further, the TGI in the test on NCI-H460 lung, with OVCAR-5 ovarian, in the test on SF-268 CNS and in the test with SNB-19 CNS was greater than 25 µM each time.

On to `ClCc1ccccc1CSc1ncnc2nc[nH]c12`, for which the GI50 in the test with BT-549 breast, in the test with COLO 205 colon, with MDA-MB-231 breast, in the test on MDA-MB-435, in the test with NCI-H226 lung and in the test with NCI-H460 lung was greater than 60 µM each time. Moreover, the GI50 in the test with OVCAR-5 ovarian, in the test on SF-268 CNS and with SNB-19 CNS was greater than 60 µM throughout. Also, the TGI in the test on BT-549 breast, with COLO 205 colon, with MDA-MB-231 breast, with MDA-MB-435, in the test with NCI-H226 lung and with NCI-H460 lung was greater than 60 µM each time. Moreover, the TGI in the test with OVCAR-5 ovarian, with SF-268 CNS and in the test with SNB-19 CNS was greater than 60 µM each time.

Turning to `N#Cc1c(O)c2c(c(O)c1C#N)C(=O)c1ccccc1C2=O`, the GI50 is 1.62 µM in the test on A549 NSCLC; 3.77 µM in the test with BT-549 breast; 1.78 µM with COLO 205 colon; 2.01 µM in the test on MDA-MB-231 breast; 2.83 µM with NCI-H226 lung; 1.04 µM in the test with NCI-H460 lung. In addition, the GI50 is 3.35 µM with OVCAR-5 ovarian, 2.8 µM in the test with SF-268 CNS and 2.86 µM in the test on SNB-19 CNS. The TGI with A549 NSCLC is 8.02 µM; with BT-549 breast, 14.9 µM; with COLO 205 colon it was 4.13 µM; with MDA-MB-231 breast, 9.55 µM; with NCI-H226 lung, 25.3 µM; in the test on NCI-H460 lung, greater than 33.8 µM. In addition, the TGI in the test on OVCAR-5 ovarian stood at 8.74 µM; in the test with SF-268 CNS, 16 µM; with SNB-19 CNS it was 22.2 µM.

With `CCn1c(=O)c2c3cc(O)ccc3oc2c2ccc(O)cc21`, the TGI was 86.9 µM in the test with A549 NSCLC; 76.7 µM with BT-549 breast; 43.9 µM in the test on COLO 205 colon; greater than 100 µM in the test on MDA-MB-231 breast; greater than 100 µM in the test on MDA-MB-435; greater than 100 µM in the test with NCI-H226 lung. Also, the TGI with NCI-H460 lung, in the test with SF-268 CNS and with SNB-19 CNS was greater than 100 µM in each case.

On to `O=C1c2ccccc2-c2c1c1cc3c(cc1c(=O)n2CCCCl)OCO3`, for which the GI50 in the test with A549 NSCLC is 36.3 µM; in the test on BT-549 breast, 45.9 µM; in the test with MDA-MB-231 breast, 24.7 µM; in the test on MDA-MB-435, 29.4 µM; in the test with NCI-H460 lung, 97.1 µM; with SF-268 CNS, 51.7 µM. Moreover, the GI50 with SNB-19 CNS is greater than 100 µM. Also, the TGI is greater than 100 µM in the test on A549 NSCLC; greater than 100 µM with BT-549 breast; 75.3 µM in the test with MDA-MB-231 breast; greater than 100 µM with MDA-MB-435; greater than 100 µM with NCI-H460 lung; greater than 100 µM with SF-268 CNS. In the test on SNB-19 CNS, this compound showed a TGI greater than 100 µM.

For `O=C(O)Cc1c[nH]c2ccc(F)cc12`, the TGI with A549 NSCLC, in the test with BT-549 breast, with COLO 205 colon, in the test with MDA-MB-231 breast, in the test with MDA-MB-435 and in the test with NCI-H226 lung was greater than 100 µM each time. The TGI in the test on NCI-H460 lung, in the test with OVCAR-5 ovarian and with SNB-19 CNS was greater than 100 µM throughout.

As for `N#Cc1nc(-c2ccc(F)cc2)oc1S(=O)(=O)N1CCOCC1`, the GI50 in the test with A549 NSCLC was 18.2 µM; in the test with BT-549 breast, 10.8 µM; in the test on MDA-MB-231 breast it was 2.86 µM; in the test on MDA-MB-435 it was 2.38 µM; in the test with NCI-H226 lung it was 4.33 µM; with NCI-H460 lung it was 12.6 µM. In addition, the GI50 was 2.8 µM in the test with OVCAR-5 ovarian, 11 µM in the test on SF-268 CNS and 13.7 µM with SNB-19 CNS. Further, the TGI in the test with A549 NSCLC was found to be 38.7 µM; with BT-549 breast, 23 µM; in the test on MDA-MB-231 breast it was 8.64 µM; in the test with MDA-MB-435 it was 6.9 µM; with NCI-H226 lung it was 19.9 µM; in the test on NCI-H460 lung, 27.3 µM. Besides, the results for the TGI in the test on OVCAR-5 ovarian, with SF-268 CNS and in the test on SNB-19 CNS were 9.38 µM, 25.4 µM and 28 µM, respectively.

`CNC(=O)c1cc(Oc2ccc3c(c2)sc2nc(-c4ccc(N)cc4)cn23)ccn1`: the GI50 was 0.474 µM in the test on A549 NSCLC; 0.5 µM with BT-549 breast; 0.305 µM in the test with COLO 205 colon; 0.726 µM in the test with MDA-MB-231 breast; 2.01 µM in the test with NCI-H226 lung; 0.289 µM in the test on NCI-H460 lung. For the same compound, the values for the GI50 with SF-268 CNS and with SNB-19 CNS were 0.791 µM and 0.405 µM, respectively. In addition, the TGI in the test on A549 NSCLC was greater than 100 µM; with BT-549 breast, 51.6 µM; in the test with COLO 205 colon it was 27.2 µM; in the test on MDA-MB-231 breast, greater than 100 µM; in the test on NCI-H226 lung it was greater than 100 µM; in the test with NCI-H460 lung, 20.6 µM. For the same compound, the TGI in the test on OVCAR-5 ovarian, in the test with SF-268 CNS and in the test on SNB-19 CNS was greater than 100 µM in each case.
